Experimental data reported in patent US4803198A, “1-Phenyl-2-aminocarbonylindole compounds, preparation thereof and pharmaceutical compositions containing them” (Kali-Chemie Pharma GmbH, priority 1981, dated 1989).
Read-outs that look alike come from different tables or passages of the source.

Assays:
[1] = test system: isolated left auricle of female guinea pigs; assay: Functional refractory period prolonging and contraction force reducing action, double-stimulation method of Govier; details: isolated atrium from guinea pigs; for EC (125%) / IC25: Cavia porcellus; for EC (125%): 0.3 h, 18 minutes after administration, read-out: FRP: concentration at which the functional refractory period is increased to 125%; for IC25: read-out: Force: concentration at which the contraction force is reduced to 75% of the starting value; for Force/FRP quotient of concentrations: indication of therapeutic range
Excerpt: The favourable relationship between the functional refractory period prolonging action (FRP) and the contraction force reducing action (force) of the compounds can also be shown on the isolated left auricle of female guinea pigs of 300-400 g body weight by the double-stimulation method of Govier [J. Pharmakol.

[2] = test system: mice; details: mouse, in vivo
[3] = test system: disorders in cardiac rhythm induced by aconitine infusion; assay: Inhibition of disorders in cardiac rhythm induced by aconitine infusion (method of Raschak); format: in vivo, rats; details: Rattus norvegicus, iv
Protocol: The compounds also show an inhibiting action on disorders in cardiac rhythm induced by aconitine infusion [extrasystoles (ES), ventricular tachycardia (VT) and ventricular fibrillation (VF)] in rats in the experimental method of Raschak (Arzneimittelforsch. 25 (1975) 639-641). Thus, for example, the minimum effective doses of 2-[3-(N,N-diethylamino)-2-hydroxypropylaminocarbonyl]-3-methoxy-1-phenylindole on intravenous administration 5 minutes before the start of aconitine infusion are as follows: […]

[4] = Acute toxicity; details: in vivo; for LD50: mouse
Excerpt: This gives a therapeutic range (=quotient LD50 .sbsb.mouse /EDmin) of 8-17.

[5] = test system: ventricular fibrillation caused by inhalation of chloroform; assay: Inhibition of ventricular fibrillation caused by inhalation of chloroform (method of Lawson); format: in vivo; details: mice, 10 min before chloroform
Protocol: For example, in mice, the compounds have an inhibiting effect on ventricular fibrillation caused by inhalation of chloroform. The effect of the compounds on ventricular fibrillation in mice caused by inhalation of chloroform leading to rapid cessation of breathing is determined by the method of Lawson (J. Pharmacol. Exp. Ther. 160, 22-23).
In this experimental procedure, the minimum toxic dose can also be determined at the same time. The test substance, dissolved in 0.9% strength sodium chloride solution, is administered intraperitoneally to female mice of 17-24 g body weight. The animals are kept individually in glass beakers, where they are observed for possible toxic symptoms. Ten minutes after administration of the test substance, the animals are transferred to covered 300 ml glass beakers containing a cottonwool swab soaked with about 20 ml of chloroform. As soon as breathing begins to stop, the heart is exposed and the ventricular rhythm and rate are observed visually. The percentage of animals protected from ventricular fibrillation by the dose administered is given.
in the test described above, the compounds of formula I display antiarrhythmic actions in a dose range from 0.1 to 100 mg/kg.
The Example numbers given for the compounds of formula I relate to the preparation Exaples below.

Structure (SMILES)	Minimum toxic dose ([2]; ip) [mg/kg]	Minimum toxic dose ([2]; po) [mg/kg]	% of protected animals ([5]; dose 100 mg/kg ip) [%]	also measured
CCN(CC)CC(O)CNC(=O)c1c(OC)c2ccccc2n1-c1ccccc1 (stereo not shown) [Example 1, 2-[3-(N,N-Diethylamino)-2-hydroxypropylaminocarbonyl]-3-methoxy-1-phenylindole]	300	100	–	EC (125%) [1]: 3.6 µM; IC25 [1]: 6.3 µM; Force/FRP quotient of concentrations [1]: 1.8; minimal effective dose ([3]; read-out: Minimum effective inhibiting dose, extrasystoles): 2.15 µmol/kg; minimal effective dose ([3]; read-out: Minimum effective inhibiting dose, heart rate): > 12 µmol/kg; minimal effective dose ([3]; read-out: Minimum effective inhibiting dose, ventricular fibrillation): 4.64 µmol/kg; minimal effective dose ([3]; read-out: Minimum effective inhibiting dose, ventricular tachycardia): 2.15 µmol/kg; LD50 ([4]; ip, administered intraperitoneally): 164 µmol/kg; LD50 ([4]; iv, administered intravenously): 37.3 µmol/kg; selectivity ratio ([4]; LD50 mouse over minimum effective dose in aconitine test, read-out: therapeutic range (=quotient LD50 mouse/EDmin)): 8 to 17; % of protected animals ([5]; dose 25 mg/kg ip): 100%
CN(C)CCNC(=O)c1c(O)c2ccccc2n1-c1ccc(Cl)cc1 [Example 2, 2-[2-(N,N-Dimethylamino)-ethylaminocarbonyl]-3-hydroxy-1-(4'-chlorophenyl)-indole]	≥ 100	≥ 300	100	–
COc1c(C(=O)NCCN(C)C)n(-c2ccc(Cl)cc2)c2ccccc12 [Example 15]	≥ 100	≥ 300	100	–
CCN(CC)CCCNC(=O)c1c(OC)c2ccccc2n1-c1ccccc1 [Example 20]	300	50	–	EC (125%) [1]: 0.66 µM; IC25 [1]: 3.57 µM; Force/FRP quotient of concentrations [1]: 5.4; % of protected animals ([5]; dose 10 mg/kg ip): 100%
CCN(CC)CCCCNC(=O)c1c(OC)c2ccccc2n1-c1ccccc1 [Example 22]	300	50	–	% of protected animals ([5]; dose 10 mg/kg ip): 66.7%
Cc1cccc(-n2c(C(=O)NCCN(C)C)c(O)c3ccccc32)c1C [Example 25]	≥ 100	≥ 300	66.7	–
COc1c(C(=O)NCCN(C)C)n(-c2ccccc2)c2ccc(Br)cc12 [Example 30]	≥ 300	200	–	% of protected animals ([5]; dose 50 mg/kg ip): 33.3%
